Measured values taken from ChEMBL document CHEMBL1201862, “PubChem BioAssay data set” (2004).
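These data come from cells grown in 96-well plates and exposed to compound for 48 hours at five concentrations. GI50 marks 50% less growth.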 Active and inactive are the calls of the source. Rule as the data show it: active = GI50 up to about 1.1 µM and inactive = higher.

Key:
Test in all cases: NCI tumour cell line growth inhibition, 48 h
[1] = test system: HOP-92
[2] = test system: SN12C
[3] = test system: NCI-H226
[4] = test system: 786-0
[5] = test system: CAKI-1
[6] = test system: NCI-H460
[7] = test system: UACC-257
[8] = test system: SK-OV-3
[9] = test system: OVCAR-5
[10] = test system: HT-29
[11] = test system: PC-3
[12] = test system: T47D
[13] = test system: A549
[14] = test system: HCC 2998
[15] = test system: SF-268
[16] = test system: SK-MEL-5
[17] = test system: UACC-62
[18] = test system: MDA-MB-231
[19] = test system: M14
[20] = test system: RPMI-8226

Structure (SMILES): CC(=O)NC1C(OCc2ccccc2)OC(CO)C(O)C1OC(C)C(=O)NC(C)C(=O)NC(CCC(=O)NCCCNc1c2ccccc2nc2cccc([N+](=O)[O-])c12)C(N)=O (stereo not given)
- GI50 [1]: 1990 nM (inactive)
- GI50 [2]: 1020 nM (active)
- GI50 [3]: 2790 nM (inactive)
- GI50 [4]: 2770 nM (inactive)
- GI50 [5]: 1700 nM (inactive)
- GI50 [6]: 258 nM (active)
- GI50 [7]: 2000 nM (inactive)
- GI50 [8]: 7260 nM (inactive)
- GI50 [9]: 2240 nM (inactive)
- GI50 [10]: 290 nM (active)
- GI50 [11]: 618 nM (active)
- GI50 [12]: 16800 nM (inactive)
- GI50 [13]: 1430 nM (inactive)
- GI50 [14]: 1140 nM (inactive)
- GI50 [15]: 1380 nM (inactive)
- GI50 [16]: 1010 nM (active)
- GI50 [17]: 1250 nM (inactive)
- GI50 [18]: 1360 nM (inactive)
- GI50 [19]: 1970 nM (inactive)
- GI50 [20]: 590 nM (active)

Structure (SMILES): CC(C)=CCC[C@@H](C)C1=C(Nc2ccccc2Cl)C(=O)C(C)=C(O)C1=O
- GI50 [1]: 6820 nM (inactive)
- GI50 [2]: 3720 nM (inactive)
- GI50 [3]: 4690 nM (inactive)
- GI50 [4]: 1810 nM (inactive)
- GI50 [5]: 4060 nM (inactive)
- GI50 [6]: 2430 nM (inactive)
- GI50 [7]: 6460 nM (inactive)
- GI50 [8]: 5140 nM (inactive)
- GI50 [9]: 14600 nM (inactive)
- GI50 [10]: 3560 nM (inactive)
- GI50 [11]: 4850 nM (inactive)
- GI50 [12]: 5620 nM (inactive)
- GI50 [13]: 3240 nM (inactive)
- GI50 [14]: 6180 nM (inactive)
- GI50 [15]: 3850 nM (inactive)
- GI50 [16]: 1950 nM (inactive)
- GI50 [17]: 3670 nM (inactive)
- GI50 [18]: 4610 nM (inactive)
- GI50 [19]: 6150 nM (inactive)
- GI50 [20]: 1170 nM (inactive)

Structure (SMILES): O=C1Nc2ccccc2/C1=N/NC(=S)N1CCCCCC1
- GI50 [1]: 1820 nM (inactive)
- GI50 [2]: 1420 nM (inactive)
- GI50 [3]: 1360 nM (inactive)
- GI50 [4]: 332 nM (active)
- GI50 [5]: 1430 nM (inactive)
- GI50 [6]: 90 nM (active)
- GI50 [7]: 2540 nM (inactive)
- GI50 [8]: 1650 nM (inactive)
- GI50 [9]: 2590 nM (inactive)
- GI50 [10]: 1300 nM (inactive)
- GI50 [11]: 453 nM (active)
- GI50 [12]: 3780 nM (inactive)
- GI50 [13]: 643 nM (active)
- GI50 [14]: 1520 nM (inactive)
- GI50 [15]: 322 nM (active)
- GI50 [16]: 72.3 nM (active)
- GI50 [17]: 489 nM (active)
- GI50 [18]: 560 nM (active)
- GI50 [19]: 684 nM (active)
- GI50 [20]: 824 nM (active)

Structure (SMILES): Cc1c(N)nc(C(CC(N)=O)NCC(N)C(N)=O)nc1C(=O)NC(C(=O)NC(C)C(O)C(C)C(=O)NC(C(=O)NCCc1nc(-c2nc(C(=O)NCCCNC(C)c3ccccc3)cs2)cs1)C(C)O)C(OC1OC(CO)C(O)C(O)C1OC1OC(CO)C(O)C(OC(N)=O)C1O)c1c[nH]cn1 (stereo not given)
- GI50 [1]: 190 nM (active)
- GI50 [2]: 2070 nM (inactive)
- GI50 [3]: 184 nM (active)
- GI50 [4]: 419 nM (active)
- GI50 [5]: 25.8 nM (active)
- GI50 [6]: 48.2 nM (active)
- GI50 [7]: 22300 nM (inactive)
- GI50 [8]: 10200 nM (inactive)
- GI50 [9]: 5960 nM (inactive)
- GI50 [10]: 21100 nM (inactive)
- GI50 [11]: > 50000 nM (inactive)
- GI50 [12]: 5260 nM (inactive)
- GI50 [13]: 847 nM (active)
- GI50 [14]: 21600 nM (inactive)
- GI50 [15]: 2900 nM (inactive)
- GI50 [16]: 1050 nM (active)
- GI50 [17]: 706 nM (active)
- GI50 [18]: > 50000 nM (inactive)
- GI50 [19]: 3270 nM (inactive)
- GI50 [20]: 3210 nM (inactive)

Structure (SMILES): Cc1ccsc1/C(S)=N\c1ccc(Cl)c(/C=N/OC(C)(C)C)c1
- GI50 [1]: 18000 nM (inactive)
- GI50 [2]: 27000 nM (inactive)
- GI50 [3]: 24700 nM (inactive)
- GI50 [4]: 20900 nM (inactive)
- GI50 [5]: 29000 nM (inactive)
- GI50 [6]: 20300 nM (inactive)
- GI50 [7]: 17200 nM (inactive)
- GI50 [8]: > 100000 nM (inactive)
- GI50 [9]: > 100000 nM (inactive)
- GI50 [10]: 14100 nM (inactive)
- GI50 [11]: 34400 nM (inactive)
- GI50 [12]: 23600 nM (inactive)
- GI50 [13]: 30900 nM (inactive)
- GI50 [14]: 18500 nM (inactive)
- GI50 [15]: > 100000 nM (inactive)
- GI50 [16]: 31500 nM (inactive)
- GI50 [17]: 32400 nM (inactive)
- GI50 [18]: 21200 nM (inactive)
- GI50 [19]: 39000 nM (inactive)
- GI50 [20]: 26400 nM (inactive)

Structure (SMILES): CC1(C)CC(O)C2=C(O1)C(=O)c1ncccc1C2=O (stereo not given)
- GI50 [1]: 2280 nM (inactive)
- GI50 [2]: 1940 nM (inactive)
- GI50 [3]: 1870 nM (inactive)
- GI50 [4]: 1870 nM (inactive)
- GI50 [5]: 2240 nM (inactive)
- GI50 [6]: 2520 nM (inactive)
- GI50 [7]: 1710 nM (inactive)
- GI50 [8]: 13700 nM (inactive)
- GI50 [9]: 1890 nM (inactive)
- GI50 [10]: 3050 nM (inactive)
- GI50 [11]: 2900 nM (inactive)
- GI50 [12]: 2260 nM (inactive)
- GI50 [13]: 9510 nM (inactive)
- GI50 [14]: 5410 nM (inactive)
- GI50 [15]: 2000 nM (inactive)
- GI50 [16]: 1660 nM (inactive)
- GI50 [17]: 1720 nM (inactive)
- GI50 [18]: 2290 nM (inactive)
- GI50 [19]: 1960 nM (inactive)
- GI50 [20]: 2480 nM (inactive)

Structure (SMILES): CC[C@](O)(CC(=O)O[C@H]1C(=O)O[C@@H]2C[C@H]3C(C)=CC(=O)[C@@H](O)[C@]3(C)[C@H]3[C@@]4(O)OC[C@]32[C@@H]1[C@@H](C)[C@H]4O)C(C)C
- GI50 [1]: < 10 nM (active)
- GI50 [2]: < 10 nM (active)
- GI50 [3]: < 10 nM (active)
- GI50 [4]: < 10 nM (active)
- GI50 [5]: < 10 nM (active)
- GI50 [6]: < 10 nM (active)
- GI50 [7]: < 10 nM (active)
- GI50 [8]: < 10 nM (active)
- GI50 [9]: < 10 nM (active)
- GI50 [10]: < 10 nM (active)
- GI50 [11]: < 10 nM (active)
- GI50 [12]: < 10 nM (active)
- GI50 [13]: < 10 nM (active)
- GI50 [14]: < 10 nM (active)
- GI50 [15]: < 10 nM (active)
- GI50 [16]: < 10 nM (active)
- GI50 [17]: < 10 nM (active)
- GI50 [18]: < 10 nM (active)
- GI50 [19]: < 10 nM (active)
- GI50 [20]: < 10 nM (active)
